Laboratory results reported in patent US5866617A, “Formulations and methods of use 2,2'-dithio-bis-esthane sulfonate” (BioNumerik Pharmaceuticals, Inc., priority 1997, dated 1999).

Key:
physchem = conditions: water
Protocol: In this example, 10 grams of the disodium salt of 2,2'-dithio-bis-ethane sulfonate was dissolved in 50 ml of sterile HPLC grade water and the pH of the solution was readjusted to a pH of 7.0 using 1N hydrochloric acid. The resulting solution was then passed through a 0.2 micron syringe filter into an autoclaved round bottom flask (250 ml). This sterile solution was then freeze dried (lyophilized) to a white crystalline powder. The lyophilized powder was then used for the following solubility studies.
1 ml of sterile HPLC grade water was distributed in each of ten sterilized 10 ml vials. […] Each vial was first observed at room temperature for a period of approximately 15 minutes, and then heated to a temperature of 37° C. for a period of at least 15 minutes.

Fischer rats [1] = test: Protection against cisplatin induced myelosuppression in Fischer rats (day 5 WBC); assay type: in vivo; conditions: for deviation of mean WBC from untreated controls: day 5
Protocol: FIG. 3. Total WBC Values on Day 5 Post Treatment with i.v. Cisplatin (6 mg/kg) With or Without Increasing Doses of i.v. 2,2'-Dithio-Bis-Ethane Sulfonate (BNP7787).
(§1) The data from these studies are shown below in FIGS. 1 and 2. Under Good Laboratory Practice (GLP) conditions, Fischer rats (10 rats per treatment group) were treated with or without escalating doses of BNP7787 (up to 1000 mg/kg) administered by i.v. injection with a nephrotoxic dose of cisplatin (6 mg/kg). Serum BUN (FIG. 2) and Creatinine (FIG. 1) values were measured on day 5 and the animals were weighed daily. […] The mean day 5 WBC levels of rats treated with higher doses of 2,2'-dithio-bis-ethane sulfonate, namely the 333 mg/kg and 1,000 mg/kg treatment groups, are approximately 6,800 and 6,200, respectively. These mean WBC values are within 15% of the WBC values for untreated controls. The day 5 mean WBC counts for the cisplatin only and low dose (37 mg/kg) 2,2'-dithio-bis-ethane sulfonate treatment groups are approximately 4,800 and 4,500, respectively and represent a 32% to 36% reduction in the day 5 mean WBC from the untreated control group. The Fischer rat model is highly correlated with cisplatin induced nephrotoxicity in humans and is thus an excellent animal model to support the utility of 2,2'-dithio-bis-ethane sulfonate to protect against cisplatin induced nephrotoxicity in humans.

[2] = Stability of 2,2'-dithio-bis-ethane sulfonate in acidic and basic aqueous media (proton NMR); assay type: physicochemical
Protocol: The stability of 2,2'-dithio-bis-ethane sulfonate at room temperature was determined at pH ranges of 1.5 to 9.0.
The stability of 2,2'-dithio-bis-ethane sulfonate in acidic and basic aqueous media can be studied as described in this example. In a typical experiment, 50 mg of 2,2'-dithio-bis-ethane sulfonate (as produced by using the above described method) was dissolved in one ml of water and the pH of the solution adjusted to 1.5, 2.0, 3.0, 4.0, 5.0 and 6.0 by adding 1N hydrochloric acid in water or the pH adjusted to 8.0, 9.0, 10.0 or 11.0 by adding 1N sodium hydroxide in water. The reaction mixture was then stirred for 24 hours at room temperature, the water was removed at reduced pressure, dissolved in spectral grade D2 O, and the proton NMR spectrum was recorded.
The stability of 2,2'-dithio-bis-ethane sulfonate at pH 1.5 is further studied by heating the reaction mixture to 100 degrees Celsius for 10 minutes.

[3] = Body weight change in tumor bearing Fischer rats
Protocol: FIG. 4. Weight Change in Tumor Bearing Fischer Rats Treated with Parenteral Cisplatin (6 mg/kg or 9 mg/kg) and 2,2'-Dithio-Bis-Ethane Sulfonate (BNP7787 @ 1,000 mg/kg).
The antitumor activity and toxicity, as measured by weight changes estimated by changes in tumor volumes and animal weights, respectively, of escalating doses of parenterally (intravenously) administered cisplatin (6 mg/kg and 9 mg/kg) with or without substantially contemporaneously intravenously administered BNP7787 (1000 mg/kg) was investigated in Fischer rats bearing subcutaneous established (~3.0 g) WARD colon cancer.

[4] = Solubility in sterile water and 0.9% sodium chloride solution, pH 7.15 (tyndall effect); assay type: physicochemical; conditions: water and 0.9% nacl, read-out: concentrations at which soluble
Protocol: 1 ml of 0.9% sodium chloride solution was then distributed in each of a second set of six sterilized 10 ml vials. The 0.9% sodium chloride solution was obtained by dissolving 9 mg of USP grade sodium chloride in sterile HPLC grade water using an agitator.

Fischer rats [5] = test: Protection against cisplatin induced nephrotoxicity in Fischer rats (day 5 serum creatinine and BUN); assay type: in vivo
Protocol: FIG. 1. Serum Creatinine Values on Day 5 Post Treatment with i.v. Cisplatin (6 mg/kg) With or Without Increasing Doses of i.v. 2,2'-Dithio-Bis-Ethane Sulfonate (BNP7787).
FIG. 2. Serum BUN (Blood Urea Nitrogen) Values on Day 5 Post Treatment with i.v. Cisplatin (6 mg/kg) With or Without Increasing Doses of i.v. 2,2'-Dithio-Bis-Ethane Sulfonate (BNP7787).
as §1

WARD colon cancer = test: Antitumor activity in Fischer rats bearing subcutaneous WARD colon cancer; assay type: in vivo
Protocol: Antitumor Response of Tumor Bearing Fischer Rats Treated with Parenteral Cisplatin (6 mg/kg or 9 mg/kg) and 2,2'-Dithio-Bis-Ethane Sulfonate (BNP7787 @ 1000 mg/kg).

rats = conditions: single i.p. dose of 3 mg cisplatin/kg, cited from earlier work
[6] = human, in vivo, cited from earlier work
[7] = rat, in vivo, iv, 180 min; cited from earlier work
[8] = in vivo; cited from earlier work
cancer patients = conditions: cited from earlier work
[9] = BNP7787 37 mg/kg with cisplatin 6 mg/kg
[10] = BNP7787 333 mg/kg with cisplatin 6 mg/kg
[11] = BNP7787 1,000 mg/kg with cisplatin 6 mg/kg
[12] = BNP7787 1000 mg/kg i.v. with cisplatin 6 mg/kg and 9 mg/kg

O=S(=O)([O-])CCSSCCS(=O)(=O)[O-].[Na+].[Na+]
solubility (physchem): 10.5 to 102 mg/mL
mean day 5 WBC (Fischer rats [1]; [9]): ~4,500
reduction in day 5 mean WBC from the untreated control group (Fischer rats [1]; [9]): 36%
mean day 5 WBC (Fischer rats [1]; [10]): approximately 6,800
deviation of mean WBC from untreated controls (Fischer rats [1]; [10]): ≤ 15%
mean day 5 WBC (Fischer rats [1]; [11]): ~6,200
deviation of mean WBC from untreated controls (Fischer rats [1]; [11]): ≤ 15%
protective effect against cisplatin induced myelosuppression (WBC) (Fischer rats [1]; escalating BNP7787 doses with cisplatin 6 mg/kg): dose-dependent protective effect
change in proton spectrum on heating ([2]; pH 1.5, 100 degrees Celsius, 10 minutes): No change in the proton spectrum
pH range in which stable ([2]; room temperature, 24 hours, listed as 2,2'-dithio-bis-ethane sulfonate): 1.0-11.0
mean weights compared with all other treatment groups [3, 12]: greater mean weights than all other treatment groups
protection against renal damage as measured by weight loss [3, 12]: clearly protective against renal damage
solubility [4]: 100 to 320 mg/mL
nephrotoxicity (plasma BUN and creatinine levels and histopathology) relative to cisplatin only (Fischer rats [5]; BNP7787 37 mg/kg with cisplatin 6 mg/kg i.v.): slight increase in nephrotoxicity
renal protection (day 5 creatinine and BUN) (Fischer rats [5]; BNP7787 333 mg/kg i.v. with cisplatin 6 mg/kg i.v.): 100%
renal protection (day 5 creatinine and BUN) (Fischer rats [5]; BNP7787 1000 mg/kg i.v. with cisplatin 6 mg/kg i.v.): 100%
dose-response effect in renal protection (Fischer rats [5]; escalating i.v. doses up to 1000 mg/kg with cisplatin 6 mg/kg): clear dose-response effect
potentiation of cisplatin antitumor activity (WARD colon cancer; BNP7787 1000 mg/kg i.v. with cisplatin 6 mg/kg or 9 mg/kg): potentiation of cisplatin antitumor activity
intrinsic antitumor activity (WARD colon cancer; BNP7787 without cisplatin): lacks intrinsic antitumor activity
median tumor weight at maximum reduction (from 3,000 mg) (WARD colon cancer; cisplatin 6 mg/kg immediately followed by BNP7787 1,000 mg/kg i.v.): less than 300 mg
median tumor weight at maximum reduction (from 3,000 mg) (WARD colon cancer; cisplatin 9 mg/kg immediately followed by BNP7787 1,000 mg/kg i.v.): < 100 mg
effect on antitumor activity of cisplatin (abrogation) (WARD colon cancer; substantially contemporaneous administration with cisplatin): does not abrogate the antitumor activity of cisplatin

O=S(=O)([O-])CCS.[Na+]
protection of kidneys from renal damage (rats; low doses of mesna): only partially protected
prevention of renal damage (rats; per os mesna): complete prevention of renal damage
dose appearing as thiol groups in the urine ([6]; iv, 20 mg/kg): about 48%
dose excreted in the urine as reactive thiol groups ([6]; po): approximately 52%
minimum concentration presumed to still be protective [6]: 100 µg/mL
administered dose recovered in the urine [7]: over 80%
administered mesna dose found in the urine in the form of mesna (reactive thiol) [8]: approximately 45%

N.N.[Cl][Pt][Cl] [cisplatin, cis-diammine dichloro platinum, reference compound]
mean day 5 WBC (Fischer rats [1]; cisplatin only 6 mg/kg): approximately 4,800
reduction in day 5 mean WBC from the untreated control group (Fischer rats [1]; cisplatin only 6 mg/kg): 32%
loss of body weight ([3]; cisplatin alone, 6 mg/kg and 9 mg/kg, at 6 days): up to 8%
median tumor weight at maximum reduction (from 3,000 mg) (WARD colon cancer; cisplatin only 6 mg/kg i.v.): 700 mg
median tumor weight at maximum reduction (from 3,000 mg) (WARD colon cancer; cisplatin only 9 mg/kg i.v.): 500 mg

O=S(O)(O)=S [thiosulfates, sodium thiosulfate]
increase of cisplatin dose per meter square that could be administered intraperitoneally (cancer patients; thiosulfates by intravenous infusion): more than two fold
renal toxicity of intraperitoneal cisplatin (cancer patients; thiosulfates by the intravenous route): renal toxicity could be prevented
